Source: patent publication US8758822B2, “Method for manufacturing uniform size polymeric nanoparticles containing poorly soluble drugs” (Korea Research Institute of Bioscience and Biotechnology, priority 2008, dated 2014)

Experiments:
[1] = test system: carbon tetrachloride-induced liver damage; details: administered 2 weeks, CCl4 continued to 3 and 4 weeks; FIGS. 6 and 7
Protocol: (§1) 1. For Group 1 (control group), 0.75 ml/kg of carbon tetrachloride was injected each time into the peritoneal cavity 2 times a week (Mondays & Fridays) for 4 weeks, and no additional compounds was administered any more.

[2] = taken as a form of tablet; cited from earlier work
[3] = test system: ICR rats; assay: Acute toxicity test; type: in vivo; details: for Fatality rate / No. of dead rats: after 1 week
Description: Acute toxicity was investigated upon administering the PLGA-BDD nanoparticles of the present invention prepared via Example 2.

[4] = test system: carbon tetrachloride-induced liver damage; assay: Treatment effects on carbon tetrachloride-induced liver damage; type: in vivo, Sprague Dawley rats; details: blood serum after 4 weeks; for Relative concentration of ALT against the control group: 25 mg/kg oral; for ALT* (average ALT concentration ± deviation): 25 mg/kg oral once a day, 6 times a week, CCl4 0.75 ml/kg i.p. 2 times a week
Protocol: 6-week old 20 male Sprague Dawley rats (Orient Bio, Korea) were weighed and distributed to 4 groups 5 to each group to be equal in average weight and degree of dispersion. Under the condition of 23±2′C of temperature and 55±5% of relative humidity in an animal facility, 0.75 ml/kg of 50% solution (v/v) (Sigma-Aldrich, USA) of liver toxic carbon tetrachloride (CCl4) mixed with corn oil was injected each time into the peritoneal cavity 2 times a week (Mondays & Fridays) for 4 weeks.
as §1
(§2) 2. For Group 2, in addition to the 0.75 ml/kg of carbon tetrachloride injection each time into the peritoneal cavity 2 times a week (Mondays & Fridays) for 4 weeks, BDD equivalent to 25 mg per 1 kg of body weight of each rat, which was suspended in 1% (w/v) of CMC (carboxylmethyl cellulose sodium salt, Sigma-Aldrich, USA) solution were orally administered each time once a day, 6 times a week for 4 weeks.
as §2, with “3.” for “2.”, “3,” for “2,”, “BDD-containing polymeric nanoparticles of the present invention prepared via Example 2” for “BDD”, “were” for “was”, “(Carboxylmethyl” for “(carboxylmethyl”
4. For Group 4 (no treatment group), no carbon tetrachloride and compounds were administered.
In detail, after 4 weeks, each animal was anesthetized by injecting 4% of 4 ml-chloral hydrate (BDH Laboratory Supplies, U.K.) Into the peritoneal cavity, and blood was taken out from the heart and left at a room temperature for an hour. After then, blood serum was obtained by spinning down at 16000 rpm for 20 minutes, and ALT and AST concentrations were measured by an automatic blood biochemistry analyzer (HITACHI 7080, HITACHI, Japan) using an ALT and AST test reagents (TA-Test Wako; WAKO Pure Chemical, Japan).

COC(=O)c1cc(OC)c2c(c1-c1c(C(=O)OC)cc(OC)c3c1OCO3)OCO2 [BDD, biphenyl-dimethyl-dicarboxylate]
inhibiting effect on increase of carbon tetrachloride-induced ALT and AST concentration over time [1]: rebounded after 4 weeks | bioavailability [2]: 20-30% | Fatality rate ([3]; 0.005 g per kg oral): 0% | No. of dead rats ([3]; 0.005 g per kg oral): 0 | Fatality rate ([3]; 0.1 g per kg oral): 0% | No. of dead rats ([3]; 0.1 g per kg oral): 0 | Fatality rate ([3]; 0.25 g per kg oral): 0% | No. of dead rats ([3]; 0.25 g per kg oral): 0 | Fatality rate ([3]; 0.5 g per kg oral): 0% | No. of dead rats ([3]; 0.5 g per kg oral): 0 | Fatality rate ([3]; 1 g per kg oral): 0% | No. of dead rats ([3]; 1 g per kg oral): 0 | LD50 ([3]; oral): >2000 mg/kg | Relative concentration of ALT against the control group ([4]; Table 2): 42% | ALT* (average ALT concentration ± deviation) ([4]; Table 2): 229.6 ± 99.7 SF IU/l | Relative concentration of ALT against the control group ([4]; Table 3): 52.9% | ALT* (average ALT concentration ± deviation) ([4]; Table 3): 479.7 ± 144.8 SF IU/l
